Source: ChEMBL document CHEMBL1201862, “PubChem BioAssay data set” (2004)
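All cell lines were grown in 96-well plates and treated with compound for 48 hours. GI50 marks 50% less growth.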 Calls of active or inactive are those of the source. No stated cut-off is given here; in the data, active = GI50 up to about 1.1 µM and inactive = higher.

Assays:
Experiment in all cases: inhibition of tumour cell growth, NCI panel, 48 h
[1] = test system: SW-620
[2] = test system: SNB-19
[3] = test system: A549
[4] = test system: T47D
[5] = test system: MCF7
[6] = test system: SK-MEL-28
[7] = test system: HOP-92
[8] = test system: EKVX
[9] = test system: OVCAR-4
[10] = test system: BT-549
[11] = test system: SK-OV-3
[12] = test system: RXF 393
[13] = test system: DU-145
[14] = test system: NCI-H460
[15] = test system: CAKI-1
[16] = test system: IGROV-1
[17] = test system: Hs-578T
[18] = test system: UACC-62

SMILES	GI50 [1]	GI50 [2]	GI50 [3]	GI50 [4]	GI50 [5]	GI50 [6]	GI50 [7]	GI50 [8]	GI50 [9]	GI50 [10]	GI50 [11]	GI50 [12]	GI50 [13]	GI50 [14]	GI50 [15]	GI50 [16]	GI50 [17]	GI50 [18]
O=C1/C(=C\c2ccc([N+](=O)[O-])o2)SC2NC(COc3ccc(Cl)cc3)=NN12 (centres undefined)	2.43 µM (inactive)	16.7 µM (inactive)	18.3 µM (inactive)	1.79 µM (inactive)	2.12 µM (inactive)	4.17 µM (inactive)	2.09 µM (inactive)	5.83 µM (inactive)	1.87 µM (inactive)	9.84 µM (inactive)	24 µM (inactive)	17.6 µM (inactive)	12.9 µM (inactive)	19.2 µM (inactive)	13.1 µM (inactive)	3.15 µM (inactive)	24.4 µM (inactive)	–
CCOc1cc(CCNC)c2c(ccc3ccc(OC)c(O)c32)c1OC	–	16.1 µM (inactive)	19.3 µM (inactive)	21.7 µM (inactive)	8.47 µM (inactive)	17.9 µM (inactive)	12.1 µM (inactive)	19.3 µM (inactive)	13.7 µM (inactive)	16.3 µM (inactive)	14.4 µM (inactive)	15.7 µM (inactive)	15.2 µM (inactive)	14.1 µM (inactive)	17.5 µM (inactive)	13.9 µM (inactive)	17.4 µM (inactive)	15.8 µM (inactive)
O=C(NCCc1n[nH]c2c1C(=O)C=C(Nc1ccccc1)C2=O)OCc1ccccc1	> 100 µM (inactive)	> 100 µM (inactive)	> 100 µM (inactive)	53.8 µM (inactive)	> 100 µM (inactive)	–	> 100 µM (inactive)	> 100 µM (inactive)	66.4 µM (inactive)	> 100 µM (inactive)	> 100 µM (inactive)	> 100 µM (inactive)	> 100 µM (inactive)	> 100 µM (inactive)	> 100 µM (inactive)	> 100 µM (inactive)	> 100 µM (inactive)	8.09 µM (inactive)
Clc1cc(OCC23CC4CC(CC(C4)C2)C3)nc(OCC23CC4CC(CC(C4)C2)C3)n1	> 100 µM (inactive)	> 100 µM (inactive)	> 100 µM (inactive)	> 100 µM (inactive)	> 100 µM (inactive)	> 100 µM (inactive)	–	> 100 µM (inactive)	> 100 µM (inactive)	> 100 µM (inactive)	> 100 µM (inactive)	> 100 µM (inactive)	> 100 µM (inactive)	> 100 µM (inactive)	> 100 µM (inactive)	> 100 µM (inactive)	> 100 µM (inactive)	> 100 µM (inactive)
O=C(NNC(=S)Nc1ccccc1)C12CC3CC(CC(C3)C1)C2	24.2 µM (inactive)	25.4 µM (inactive)	19.9 µM (inactive)	27.6 µM (inactive)	19.2 µM (inactive)	21.9 µM (inactive)	30.1 µM (inactive)	36 µM (inactive)	29.2 µM (inactive)	9.1 µM (inactive)	41.4 µM (inactive)	27.7 µM (inactive)	28.6 µM (inactive)	7.23 µM (inactive)	21.9 µM (inactive)	25.1 µM (inactive)	> 74.3 µM (inactive)	13.7 µM (inactive)
O=C(c1ccccc1)c1ccc(N2C(=O)/C(=C/c3cccc(Oc4ccccc4)c3)N=C2c2ccccc2)c(N2C(=O)/C(=C/c3cccc(Oc4ccccc4)c3)N=C2c2ccccc2)c1	30.7 µM (inactive)	38.5 µM (inactive)	31.6 µM (inactive)	30.7 µM (inactive)	24.9 µM (inactive)	51.3 µM (inactive)	88.5 µM (inactive)	44.2 µM (inactive)	35.3 µM (inactive)	24.7 µM (inactive)	42.9 µM (inactive)	23.8 µM (inactive)	46.5 µM (inactive)	23.9 µM (inactive)	41.5 µM (inactive)	39.1 µM (inactive)	26.9 µM (inactive)	11.9 µM (inactive)
C[C@]12CC[C@H](O)CC1=CC[C@@H]1[C@@H]2CC[C@]2(C)C(=N/O)/C(=C/c3ccc([N+](=O)[O-])cc3)C[C@@H]12	9.86 µM (inactive)	10.6 µM (inactive)	0.782 µM (active)	2.48 µM (inactive)	3.78 µM (inactive)	5.9 µM (inactive)	3.29 µM (inactive)	2.59 µM (inactive)	5.33 µM (inactive)	10.5 µM (inactive)	0.403 µM (active)	3.6 µM (inactive)	6.73 µM (inactive)	0.519 µM (active)	7.05 µM (inactive)	7.48 µM (inactive)	12.1 µM (inactive)	10.9 µM (inactive)
CCO/C(=N/S(=O)(=O)C(F)(F)F)N(C(C)C)C(C)C	> 100 µM (inactive)	> 100 µM (inactive)	> 100 µM (inactive)	> 100 µM (inactive)	> 100 µM (inactive)	> 100 µM (inactive)	> 100 µM (inactive)	> 100 µM (inactive)	> 100 µM (inactive)	> 100 µM (inactive)	–	> 100 µM (inactive)	> 100 µM (inactive)	> 100 µM (inactive)	> 100 µM (inactive)	> 100 µM (inactive)	> 100 µM (inactive)	> 100 µM (inactive)
CC1=C(C#N)C(=C(C#N)C#N)OC1(C)Cc1ccccc1 (centres undefined)	42.9 µM (inactive)	> 100 µM (inactive)	56.8 µM (inactive)	29.9 µM (inactive)	38.2 µM (inactive)	49.9 µM (inactive)	19.7 µM (inactive)	45.9 µM (inactive)	21.9 µM (inactive)	35.1 µM (inactive)	> 100 µM (inactive)	17.6 µM (inactive)	37 µM (inactive)	–	24.7 µM (inactive)	51.3 µM (inactive)	30 µM (inactive)	20.6 µM (inactive)
O=C(CCCl)NN=C1NCCN1	> 100 µM (inactive)	> 100 µM (inactive)	> 100 µM (inactive)	> 100 µM (inactive)	> 100 µM (inactive)	> 100 µM (inactive)	> 100 µM (inactive)	> 100 µM (inactive)	> 100 µM (inactive)	> 100 µM (inactive)	> 100 µM (inactive)	> 100 µM (inactive)	> 100 µM (inactive)	> 100 µM (inactive)	–	> 100 µM (inactive)	> 100 µM (inactive)	> 100 µM (inactive)
CCC(=O)O[C@H]1CC[C@H]2[C@@H]3CCC4=C/C(=N/OC(=O)c5cccc6cc7ccccc7nc56)CC[C@]4(C)[C@H]3CC[C@]12C	65.8 µM (inactive)	70.1 µM (inactive)	71.1 µM (inactive)	21.9 µM (inactive)	42.2 µM (inactive)	90.2 µM (inactive)	> 100 µM (inactive)	53.6 µM (inactive)	76 µM (inactive)	63.8 µM (inactive)	> 100 µM (inactive)	> 100 µM (inactive)	> 100 µM (inactive)	39.1 µM (inactive)	> 100 µM (inactive)	11.5 µM (inactive)	39.6 µM (inactive)	27.8 µM (inactive)
CCn1c(-c2ccccc2)nc2c1C(=O)c1ccccc1C2=O	32.1 µM (inactive)	32.8 µM (inactive)	28.4 µM (inactive)	2.22 µM (inactive)	25.5 µM (inactive)	56 µM (inactive)	24.2 µM (inactive)	–	12.5 µM (inactive)	24.9 µM (inactive)	20.6 µM (inactive)	15.6 µM (inactive)	28.1 µM (inactive)	20 µM (inactive)	–	19.3 µM (inactive)	27.2 µM (inactive)	15.8 µM (inactive)
COc1ccc2c(c1)/C(=C\c1c(Cl)nc3sc(C)cn13)C(=O)N2	0.826 µM (active)	3.84 µM (inactive)	3.79 µM (inactive)	3.99 µM (inactive)	3.52 µM (inactive)	8.17 µM (inactive)	10.6 µM (inactive)	7.59 µM (inactive)	–	5.21 µM (inactive)	4.03 µM (inactive)	8.22 µM (inactive)	5.74 µM (inactive)	2.51 µM (inactive)	3.37 µM (inactive)	3.72 µM (inactive)	2.74 µM (inactive)	3.29 µM (inactive)
Cc1cc(C)c(O)c(CN2CCN(C(C)C)CCN(C(C)C)CC2)c1	42.8 µM (inactive)	63.1 µM (inactive)	32.3 µM (inactive)	22 µM (inactive)	20.8 µM (inactive)	24.7 µM (inactive)	13.7 µM (inactive)	78.5 µM (inactive)	46.6 µM (inactive)	22 µM (inactive)	–	16 µM (inactive)	85.7 µM (inactive)	34.7 µM (inactive)	75.2 µM (inactive)	2.26 µM (inactive)	24.5 µM (inactive)	27 µM (inactive)
COc1ccc(-c2oc3cc(OC)c(OC)c(O)c3c(=O)c2OC)cc1	> 100 µM (inactive)	28.4 µM (inactive)	> 100 µM (inactive)	28.4 µM (inactive)	41.6 µM (inactive)	> 100 µM (inactive)	14.5 µM (inactive)	41.6 µM (inactive)	89.9 µM (inactive)	18 µM (inactive)	22.7 µM (inactive)	22.7 µM (inactive)	58.7 µM (inactive)	> 100 µM (inactive)	10.5 µM (inactive)	18.7 µM (inactive)	24 µM (inactive)	21.4 µM (inactive)
